This passage reports EC50 results from patent publication US20080119412A1, “Polypeptides for Modulating Binding of Trp Channel Proteins and Trp- Associated Proteins” (NoNO Inc., priority 2003, published 2008).

Residues, ends and D or L forms follow the SMILES beside them. *: point of attachment. Biotin = O=C1N[C@H]2[C@H](CS[C@H]2CCCCC(=O)*)N1

Holding throughout (experiment): G3 assay titration, GST-PDZ fusion / biotinylated peptide
Common to all, as to type: binding

The target in one test is T1, KIAA1284 d1 (Homo sapiens, UniProt Q9ULD6).
T1 construct: made in house; host or cells: E. coli (DH5alpha, BL21 or JM109)
T1 sequence (Q9ULD6 159-271): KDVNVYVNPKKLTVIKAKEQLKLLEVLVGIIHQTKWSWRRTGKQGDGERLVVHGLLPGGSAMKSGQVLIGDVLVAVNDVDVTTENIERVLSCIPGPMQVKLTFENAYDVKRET
The method, then:
(§1) The G3 assay is identical to the G0 assay with the following exceptions. The peptides are typically present at 0.1 μM rather than 20 μM. The peptides are also pre-incubated with the HRP-streptavidin prior to adding to the assay plate. In the G0 assay, free peptide is incubated with the PDZ proteins prior to the addition of the HRP-streptavidin. Thus, for the G0 assay one can lose signal if the bound peptide dissociates from the PDZ protein prior to the addition of the HRP-streptavidin. In the G3 modified assay the HRP-streptavidin/peptide complex is added to the plate in one step, thus increasing the likelihood that all the bound peptide will be bound to HRP-streptavidin. The G3 modified assay increases the chance of observing weak interactions.
(§2) This example describes assays to identify binding between TRPM7 and PDZ domains. GST-PDZ fusions are produced that each contain an entire PDZ domain (or multiple PDZ domains), the collection encompassing approximately 90% of all PDZ domains identified in the human genome. (See Table 5 and Section V (PDZ Proteins and PL Protein Interactions Disclosure). Biotinylated peptide corresponding to 11 residues of Tat coupled to the C-terminal 9 amino acids of TRPM7 ([…]; SEQ ID NO:258) is synthesized and purified by HPLC.
(§3) • Nunc MaxiSorp 96 well Immuno-plate, Nunc • PBS pH 7.4 (phosphate buffered saline, 8 g NaCl, 0.29 g KCl, 1.44 g Na2HPO4, 0.24 g KH2PO4, add H2O to 1 liter and pH 7.4; 0.2 μm filter) • Assay Buffer: 2% BSA in PBS (20 g of bovine serum albumin per liter PBS, fraction V, ICN Biomedicals, cat#IC15142983 • Goat anti-GST polyclonal Ab, stock 5 mg/ml, stored at 4° C., Amersham Pharmacia cat#27-4577-01 • Dilute 1:1000 in PBS, final concentration 5 μg/ml. • HRP-Streptavidin, 2.5 mg/2 ml stock stored at 4° C., Zymed cat#43-4323, dilute 1:2000 into Assay buffer, final concentration of […] • Wash Buffer, PBS • Biotinylated peptides (HPLC purified, stock solution stored in −20° C. freezer) • GST-PRISM proteins (stock stored at −80° C., after 1st thaw store in −10° C. freezer) • TMB (3,3′,5,5′, teramethylbensidine), tablets, Sigma cat.#T5525 • Per plate, dissolve 1 tablet in 1 ml DMSO, add 9 ml Citrate/Phosphate buffer pH 5.4 and 2 μL H2O2 • 0.1 M H2SO4, Sigma cat.#S1526 • 12-w multichannel pipettor & tips • 50 ml reagent reservoirs, Costar#4870 • 50, 15 ml polypropylene conical tubes • Costar Transtar 96 Costar #7605 • Transtar 96 Cartridge Costar #7610 • Molecular Devices microplate reader (450 & 650 nm filters) with SoftMax Pro software *When using reagents stored at or 4° C. or −20° C., remove & keep on ice
(§4) • 1. Coat plate with 100 μl of 5 μg/ml anti-GST, overnight at 4° C. • 2. Dump contents of plate & out tap dry on paper towels • 3. Block with 200 μl Assay Buffer for 2 hrs at room temperature • 4. Prepare proteins at 5 μg/ml in Assay Buffer • 5. Wash 3× with cold PBS (4° C.), avoiding letting the plates dry out • 6. Add proteins at 50 μl per well, incubate 1 to 2 hrs at 4° C. • 7. Prepare peptides to desired concentration in Assay Buffer • 8. Wash 3× with cold PBS (4° C.), avoiding letting the plates dry out • 9. Add HRP-Streptavidin/peptide complex [prepared by incubating for 20 minutes at room temperature HRP-Streptavidin (1:2000) with the desired biotin-peptide concentration for 20 minutes at room temperature] at 50 μl per well on ice • 10. Place at room temperature for exactly 30 minutes • 11. Promptly wash 5× with PBS at room temperature • 12. Add 100 μl/well TMB substrate (write time on plate) • 13. Incubate in dark at room temperature for a maximum of 30 minutes • 14. Read plate at 25 minutes (650 nm), optional • 15. Stop reaction with 100 μl of 0.18 M H2SO4, 30 minutes after adding TMB • Take last reading at 450 nm soon after stopping reaction
(§5) The G3 assay was performed on a subset of the PDZ domains as in Example II except that the concentration of peptide was 0.002 μM, […], 0.1 μM, 0.2 μM, 1 μM, and 2 μM. Data was fitted to the equation: […]

Another test has as its target T2, MUPP1 d3 (Homo sapiens, UniProt O75970).
T2 construct: made in house; host or cells: E. coli (DH5alpha, BL21 or JM109)
T2 sequence (O75970 with tags, fused parts or gaps): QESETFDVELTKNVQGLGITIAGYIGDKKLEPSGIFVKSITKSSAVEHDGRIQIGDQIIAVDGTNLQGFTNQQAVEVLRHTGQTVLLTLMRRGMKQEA
As for the experimental part: as §1, §2, §3, §4, §5

In another test the target is T3, Mint1 d2 (Homo sapiens, UniProt Q02410).
T3 construct: made in house; host or cells: E. coli (DH5alpha, BL21 or JM109)
T3 sequence (Q02410 with tags, fused parts or gaps): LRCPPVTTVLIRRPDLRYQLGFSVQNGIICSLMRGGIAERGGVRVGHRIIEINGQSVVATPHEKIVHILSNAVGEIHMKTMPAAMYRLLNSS
The method, then: as §1, §2, §3, §4, §5

A further test has as its target T4, SITAC-18 d1 (Homo sapiens, UniProt Q9H190).
T4 construct: made in house; host or cells: E. coli (DH5alpha, BL21 or JM109)
T4 sequence (Q9H190 104-195): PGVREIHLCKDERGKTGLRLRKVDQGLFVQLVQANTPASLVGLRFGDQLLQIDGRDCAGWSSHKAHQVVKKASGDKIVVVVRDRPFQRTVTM
As for the experimental part:
as §1, §2, §3, §4, §5

For another test, the target named is T5, TIP1 d1 (Homo sapiens, UniProt O14907).
T5 construct: made in house; host or cells: E. coli (DH5alpha, BL21 or JM109)
T5 sequence (O14907 14-116): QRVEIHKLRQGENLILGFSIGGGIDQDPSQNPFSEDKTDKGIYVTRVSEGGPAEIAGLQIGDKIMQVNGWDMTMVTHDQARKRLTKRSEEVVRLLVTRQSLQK
As for the experimental part:
as §1, §2, §3, §4, §5

A further test addresses T6, MAST2 d1 (Homo sapiens, UniProt Q6P0Q8).
T6 construct: made in house; host or cells: E. coli (DH5alpha, BL21 or JM109)
T6 sequence (Q6P0Q8 with tags, fused parts or gaps): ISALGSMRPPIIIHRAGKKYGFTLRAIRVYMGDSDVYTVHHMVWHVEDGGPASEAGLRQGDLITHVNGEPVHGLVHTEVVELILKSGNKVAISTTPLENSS

With `CSCC[C@H](NC(=O)[C@H](CC(C)C)NC(=O)[C@H](CCCNC(=N)N)NC(=O)[C@@H](NC(=O)[C@H](CO)NC(=O)[C@H](CC(N)=O)NC(=O)[C@@H](NC(=O)[C@H](CO)NC(=O)[C@H](CCCNC(=N)N)NC(=O)[C@H](CCCNC(=N)N)NC(=O)[C@H](CCCNC(=N)N)NC(=O)[C@H](CCC(N)=O)NC(=O)[C@H](CCCNC(=N)N)NC(=O)[C@H](CCCNC(=N)N)NC(=O)[C@H](CCCCN)NC(=O)[C@H](CCCCN)NC(=O)[C@H](CCCNC(=N)N)NC(=O)CNC(=O)[C@H](Cc1ccc(O)cc1)NC(=O)CCCC[C@@H]1SC[C@@H]2NC(=O)N[C@@H]21)[C@@H](C)O)C(C)C)C(=O)N[C@@H](CC(C)C)C(=O)O` [Tat-TRPM7 peptide] (Biotin-YGRKKRRQRRRSTNSVRLML-OH), the EC50 at KIAA1284 d1 was greater than 2 µM; on MUPP1 d3 it was 0.29 µM; on Mint1 d2, less than 2 µM; on SITAC-18 d1, less than 1 µM; at TIP1 d1, less than 1 µM; at MAST2 d1, 0.11 µM.
